A value given as a limit tells only on which side of the number the result lay.

Assay [1] has as its target T1, ALK2 R206H (GST-tagged mutant ALK2) (Homo sapiens, UniProt Q04771, R206H).
T1 construct: purchased Carna Bioscience or ThermoFisher 09-148 or PV6232
T1 sequence (Q04771 21-509 R206H): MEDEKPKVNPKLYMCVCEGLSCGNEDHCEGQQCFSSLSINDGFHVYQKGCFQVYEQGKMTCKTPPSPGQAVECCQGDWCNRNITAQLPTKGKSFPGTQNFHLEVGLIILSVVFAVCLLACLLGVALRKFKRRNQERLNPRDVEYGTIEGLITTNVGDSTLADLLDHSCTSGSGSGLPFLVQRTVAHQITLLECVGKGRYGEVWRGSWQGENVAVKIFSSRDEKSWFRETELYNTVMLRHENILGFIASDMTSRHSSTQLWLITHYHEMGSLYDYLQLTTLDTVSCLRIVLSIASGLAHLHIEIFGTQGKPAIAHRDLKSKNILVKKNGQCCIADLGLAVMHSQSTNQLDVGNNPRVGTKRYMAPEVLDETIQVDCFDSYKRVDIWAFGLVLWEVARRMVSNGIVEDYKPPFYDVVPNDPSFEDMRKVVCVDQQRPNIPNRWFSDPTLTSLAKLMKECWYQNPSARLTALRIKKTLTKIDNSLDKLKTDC
Briefly: ALK binding assay (LANTHASCREEN TR-FRET competitive binding, displacement of Kinase Tracer 178). The settings on record: ALK2 R206H, LANTHASCREEN TR-FRET competitive binding; read-out: Binding Assay (IC50). (In general: TR-FRET usually uses a lanthanide donor and a delayed reading to cut background.)

Another assay addresses T2, human ALK2 R206H (Homo sapiens, UniProt Q04771, R206H).
T2 construct: expressed in transfected cells; host or cells: HEK293 (ATCC CRL1573), lentivirus transduction, blasticidin selection
T2 sequence (Q04771 21-509 R206H): T1 sequence (Q04771 21-509 R206H)
Briefly: Cell-based ALK2-R206H cell activity assay (Smad1-Ser463/Ser465 phosphorylation by AlphaLISA in HEK293-ALK2-R206H cells). The following applies: read-out: Cell Line (Cell Assay IC50). In short, it runs like this:
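Stable HEK293 cells expressing C-terminally FLAG-tagged human ALK2 R206H (lentiviral, blasticidin-selected) were treated with compounds in 10-point, 3-fold dilutions from 10 μM or 1 μM top, in duplicate. Smad1 Ser463/Ser465 phosphorylation was read by AlphaLISA.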
For orientation: Bead proximity is the source of the signal in Alpha formats.

One may read the IC50 as the midpoint of a concentration-inhibition curve. As for `CCC(C)N1CCC(c2ccc(-c3cc4c(N5CCN(C(=O)C6CC6)CC5)ccnn4c3)cc2)CC1` (stereo not drawn) [Compound 313], the IC50 in assay [1] is less than 0.01 µM; at human ALK2 R206H, less than 0.1 µM.
In the same order, the values of `O=C(C1CC1)N1CCN(c2ccnn3cc(-c4ccc(N5CCN(C6COC6)CC5)cc4)cc23)CC1` [Compound 314, cyclopropyl(4-(6-(4-(4-(oxetan-3-yl)piperazin-1-yl)phenyl)pyrrolo[1,2-b]pyridazin-4-yl)piperazin-1-yl)methanone] are 0.01 to 0.05 µM and more than 0.5 µM.
In the same order, the values of `O=C(C1CC1)N1CCN(c2ccnn3cc(-c4ccc(N5CCN6CCOCC6C5)cc4)cc23)CC1` (stereo not drawn) [Compound 315] are 0.01 to 0.05 µM and 0.1 to 0.5 µM.
On the same counts, the results for `CCN1CCN(c2ccc(-c3cc4c(N5CCN(C(=O)C6CC6)CC5)ccnn4c3)cc2)CC1(C)C` [Compound 316] are less than 0.01 µM and 0.1 to 0.5 µM.
Turning to `CCN1CCC(c2ccc(-c3cc4c(N5CCN(C(=O)N6CCCC6)CC5)ccnn4c3)cc2)CC1` [Compound 317], the IC50 in assay [1] is less than 0.01 µM; at human ALK2 R206H, 0.1 to 0.5 µM.
In the same order, the values of `CC(C)N1CCN(c2ccc(-c3cc4c(N5CCN(C(=O)C6CC6)[C@H](C)C5)ccnn4c3)cc2)CC1` [Compound 318] are less than 0.01 µM and 0.1 to 0.5 µM.
For the compound `CC(C)N1CC[C@H](c2ccc(-c3cc4c(N5CCN(C(=O)[C@H]6C[C@H](O)C6)CC5)ccnn4c3)cc2)C1` [Compound 320], the half-maximal inhibitory concentration (IC50) in assay [1] is less than 0.01 µM; at human ALK2 R206H it was less than 0.1 µM.
Regarding `CC(C)N1CC[C@@H](c2ccc(-c3cc4c(N5CCN(C(=O)[C@H]6C[C@H](O)C6)CC5)ccnn4c3)cc2)C1` [Compound 321], the IC50 in assay [1] was less than 0.01 µM; on human ALK2 R206H it was less than 0.1 µM.
On the same counts, the results for `CCN1CCC(c2ccc(-c3cc4c(N5CCN(C(=O)OC6CCC6)CC5)ccnn4c3)cc2)CC1` [Compound 322] are less than 0.01 µM and less than 0.1 µM.
Turning to `CC(C)N1CCCC(O)(c2ccc(-c3cc4c(N5CCN(C(=O)C6CC6)CC5)ccnn4c3)cc2)C1` (stereo not drawn) [Compound 323], the results for the IC50 (in assay [1]; at human ALK2 R206H) were less than 0.01 µM and less than 0.1 µM, respectively.
In the same order, the values of `CC(C)N1CCC(O)(c2ccc(-c3cc4c(N5CCN(C(=O)C6CC6)CC5)ccnn4c3)cc2)CC1` [Compound 324] are less than 0.01 µM and less than 0.1 µM.
As to `CC(C)N1CCC[C@@](O)(c2ccc(-c3cc4c(N5CCN(C(=O)C6CC6)CC5)ccnn4c3)cc2)C1` [Compound 325], the IC50 in assay [1] is less than 0.01 µM; at human ALK2 R206H, less than 0.1 µM.
In the case of `CC(C)N1CCC[C@](O)(c2ccc(-c3cc4c(N5CCN(C(=O)C6CC6)CC5)ccnn4c3)cc2)C1` [Compound 326], the IC50 is less than 0.01 µM in assay [1] and less than 0.1 µM on human ALK2 R206H.
For `CCN1CCN(c2ccc(-c3cc4c(N5CCN(C(=O)N6CCCC6)CC5)ccnn4c3)cc2)CC1` [Compound 327], the IC50 in assay [1] lay within 0.01 to 0.05 µM; on human ALK2 R206H, 0.1 to 0.5 µM.
Consider `CCNC(=O)N1CCN(c2ccnn3cc(-c4ccc(N5CC6(C5)CN(C(C)C)C6)cc4)cc23)CC1` [Compound 328], for which the IC50 was less than 0.01 µM in assay [1] and 0.1 to 0.5 µM on human ALK2 R206H.
Regarding `CCN1CC2CN(c3ccnn4cc(-c5ccc(N6CCN(C(C)C)CC6)cc5)cc34)CCN2C1=O` (stereo not drawn) [Compound 329], the IC50 in assay [1] is less than 0.01 µM; on human ALK2 R206H, 0.1 to 0.5 µM.
In the same order, the values of `CCN1C[C@@H]2CN(c3ccnn4cc(-c5ccc(N6CCN(C(C)C)CC6)cc5)cc34)CCN2C1=O` [Compound 330] are less than 0.01 µM and 0.1 to 0.5 µM.
In the same order, the values of `CCN1CC2(C1)CN(c1ccc(-c3cc4c(N5CCN(C(=O)[C@@H]6C[C@H]6F)CC5)ccnn4c3)cc1)C2` [Compound 332] are less than 0.01 µM and less than 0.1 µM.
In the same order, the values of `CCN1CC2(C1)CN(c1ccc(-c3cc4c(N5CCN(C(=O)[C@H]6C[C@H]6F)CC5)ccnn4c3)cc1)C2` [Compound 333] are less than 0.01 µM and less than 0.1 µM.
Consider `COCCN1CCN(c2ccc(-c3cc4c(N5CCN(C(=O)C6CC6)CC5)ccnn4c3)cc2)CC1` [Compound 334], for which the IC50 in assay [1] fell in the range of 0.01 to 0.05 µM; at human ALK2 R206H, 0.1 to 0.5 µM.
On the same counts, the results for `CCN1CCN(c2ccc(-c3cc4c(N5CCN(C(=O)[C@H]6C[C@@H](O)C6)CC5)ccnn4c3)cc2)CC1` [Compound 335] are more than 0.05 µM and more than 0.5 µM.
On the same counts, the results for `CCN1CCN(c2ccc(-c3cc4c(N5CCN(C(=O)[C@H]6C[C@H](O)C6)CC5)ccnn4c3)cc2)CC1` [Compound 336] are less than 0.01 µM and less than 0.1 µM.
In the same order, the values of `CCN1CCC(c2ccc(-c3cc4c(N5CCN(C(=O)N6CC(O)C6)CC5)ccnn4c3)cc2)CC1` [Compound 337] are less than 0.01 µM and less than 0.1 µM.
In the case of `CCOC(=O)N1CCN(c2ccnn3cc(-c4ccc(N5CC6(C5)CN(C(C)C)C6)cc4)cc23)CC1` [Compound 338], the figures for the IC50 (in assay [1]; on human ALK2 R206H) were less than 0.01 µM and 0.1 to 0.5 µM, respectively.
In the same order, the values of `CCNC(=O)N1CCN(c2ccnn3cc(-c4ccc(C5CCN(C(C)C)CC5)cc4)cc23)C[C@H]1C` [Compound 339] are less than 0.01 µM and less than 0.1 µM.
In the same order, the values of `CC(C)NC(=O)N1CCN(c2ccnn3cc(-c4ccc(C5CCN(C(C)C)CC5)cc4)cc23)CC1` [Compound 340] are less than 0.01 µM and less than 0.1 µM.
With `CCCNC(=O)N1CCN(c2ccnn3cc(-c4ccc(C5CCN(C(C)C)CC5)cc4)cc23)CC1` [Compound 341], the IC50 in assay [1] was less than 0.01 µM; at human ALK2 R206H, less than 0.1 µM.
`O=C([C@H]1CC[C@H](O)CC1)N1CCN(c2ccnn3cc(-c4ccc(C5CNCCO5)cc4)cc23)CC1` (stereo partly drawn) [Compound 343]: the IC50 in assay [1] was less than 0.01 µM; at human ALK2 R206H, 0.1 to 0.5 µM.
On the same counts, the results for `CCN1CCN(c2ccc(-c3cc4c(N5CCN(C(=O)N6CC(O)C6)CC5)ccnn4c3)cc2)CC1` [Compound 344] are 0.01 to 0.05 µM and 0.1 to 0.5 µM.
In the same order, the values of `CC(C)N1CCC(c2ccc(-c3cc4c(N5CCN(C(=O)C6CC6)CC5)ccnn4c3)cc2F)CC1` [Compound 345] are less than 0.01 µM and less than 0.1 µM.
In the same order, the values of `CC(C)NC(=O)N1CCN(c2ccnn3cc(-c4ccc(N5CCN(C(C)C)CC5)cc4)cc23)CC1` [Compound 348] are less than 0.01 µM and less than 0.1 µM.
Turning to `CC(C)N1CCN(c2ccc(-c3cc4c(N5CCN(C(=O)[C@@H]6C[C@H]6F)CC5)ccnn4c3)cc2)CC1` [Compound 349], the figures for the IC50 (in assay [1]; on human ALK2 R206H) were less than 0.01 µM and less than 0.1 µM, respectively.
With `CC(C)N1CCN(c2ccc(-c3cc4c(N5CCN(C(=O)[C@H]6C[C@H]6F)CC5)ccnn4c3)cc2)CC1` [Compound 350], the results for the IC50 (in assay [1]; at human ALK2 R206H) were less than 0.01 µM and less than 0.1 µM, respectively.
On the same counts, the results for `CCNC(=O)N1CCN(c2ccnn3cc(-c4ccc(C5(O)CCCN(C(C)C)C5)cc4)cc23)CC1` (stereo not drawn) [Compound 351] are less than 0.01 µM and less than 0.1 µM.
For `CCNC(=O)N1CCN(c2ccnn3cc(-c4ccc(C5(O)CCN(C(C)C)CC5)cc4)cc23)CC1` [Compound 352], the IC50 is less than 0.01 µM in assay [1] and 0.1 to 0.5 µM on human ALK2 R206H.
In the same order, the values of `CC(C)N1CCC(c2ccc(-c3cc4c(N5CCN(C(=O)NCCO)CC5)ccnn4c3)cc2)CC1` [Compound 353] are less than 0.01 µM and 0.1 to 0.5 µM.
`CCNC(=O)N1CCN(c2ccnn3cc(-c4ccc(C5CCN(C(C)C)CC5)c(F)c4)cc23)CC1` [Compound 354]: the IC50 was less than 0.01 µM in assay [1] and less than 0.1 µM on human ALK2 R206H.
For `CCN1CCC(c2ccc(-c3cc4c(N5CCN(C(=O)C6CC6)CC5)ccnn4c3)cc2)C(F)(F)C1` (stereo not drawn) [Compound 355], the IC50 was 0.01 to 0.05 µM in assay [1] and more than 0.5 µM on human ALK2 R206H.
In the case of `CCOC(=O)N1CCN(c2ccnn3cc(-c4ccc(C5CCN(C(C)C)CC5)c(F)c4)cc23)CC1` [Compound 357], the IC50 is less than 0.01 µM in assay [1] and less than 0.1 µM on human ALK2 R206H.
Regarding `O=C(C1CC1)N1CCN(c2ccnn3cc(-c4ccc(N5CCN(CC(F)F)CC5)cc4)cc23)CC1` [Compound 359], the IC50 in assay [1] was less than 0.01 µM; on human ALK2 R206H, more than 0.5 µM.
In the same order, the values of `CCN1CCN(c2c(F)cc(-c3cc4c(N5CCN(C(=O)C6CC6)CC5)ccnn4c3)cc2F)CC1` [Compound 360] are less than 0.01 µM and 0.1 to 0.5 µM.
As for `CCN1CCN(c2ccc(-c3cc4c(N5CCN(C(=O)C6CC6(F)F)CC5)ccnn4c3)cc2)CC1` (stereo not drawn) [Compound 361], the figures for the IC50 (in assay [1]; on human ALK2 R206H) were less than 0.01 µM and 0.1 to 0.5 µM, respectively.
On the same counts, the results for `O=C(C1CC1)N1CCN(c2ccnn3cc(-c4ccc(N5CCNCC5)cc4OC(F)F)cc23)CC1` [Compound 363] are less than 0.01 µM and 0.1 to 0.5 µM.
On the same counts, the results for `CC(C)N1CC[C@@H](c2ccc(-c3cc4c(N5CCN(C(=O)[C@H]6C[C@H](C#N)C6)CC5)ccnn4c3)cc2)C1` [Compound 364] are less than 0.01 µM and less than 0.1 µM.
In the same order, the values of `CC(C)N1CCC(c2ccc(-c3cc4c(N5CCN(C(=O)[C@H]6C[C@@H]6C#N)CC5)ccnn4c3)cc2)CC1` [Compound 365] are less than 0.01 µM and less than 0.1 µM.

Source of the values: patent US10233186B2, “Inhibitors of activin receptor-like kinase” (BLUEPRINT MEDICINES CORPORATION, priority 2016, dated 2019).
